pEC50, pIC50: −log10 of the molar value.
Experiments:
6-OHDA-lesioned rats = experiment: L-DOPA induced dyskinesia (AIM scores) in the 6-OHDA-lesioned rat model of Parkinson's disease; assay type: in vivo, Sprague Dawley rats; details: for reduction of LID: comparators, data not shown, dose not given
5-HT1A = molecular target: T1, 5-HT1A (Homo sapiens, UniProt P08908); experiment: 5-HT1A cAMP HTRF assay (agonist test, Euroscreen FAST-0500C); assay type: cell-based
T1 construct: host or cells: CHO-K1
T1 sequence (P08908 1-422): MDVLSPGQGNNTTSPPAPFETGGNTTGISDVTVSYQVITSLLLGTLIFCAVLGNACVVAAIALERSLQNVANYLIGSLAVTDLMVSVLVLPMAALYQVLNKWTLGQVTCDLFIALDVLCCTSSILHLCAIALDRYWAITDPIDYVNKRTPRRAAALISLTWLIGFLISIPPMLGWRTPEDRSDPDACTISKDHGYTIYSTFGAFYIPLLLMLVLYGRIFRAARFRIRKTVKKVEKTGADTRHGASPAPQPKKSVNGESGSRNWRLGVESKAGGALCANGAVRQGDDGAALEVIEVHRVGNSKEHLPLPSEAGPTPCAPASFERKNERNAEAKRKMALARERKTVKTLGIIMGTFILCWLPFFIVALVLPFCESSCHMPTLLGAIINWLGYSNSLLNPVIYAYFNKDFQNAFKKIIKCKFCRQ
Protocol: (§1) A. In vitro 5-HT1A/B Activity Measurements: 5-HT1A/B cAMP HTRF assay (performed at Euroscreen, order no.: 5-HT1A:FAST-0500C, 5-HT1B: FAST-0501 C)
(§2) CHO-K1 cells expressing each human recombinant receptor (see Table 1) grown prior to the test in media without antibiotic were detached by gentle flushing with PBS-EDTA, recovered by centrifugation and resuspended in assay buffer. Dose response curves are performed in parallel with the reference compounds.
(§3) For agonist tests (96well): 12 µl of cells were mixed with 6 µl of the test compound at increasing concentrations and 6 µl of forskolin then incubated 30 min at room temperature. After addition of the lysis buffer and 1 hour incubation, cAMP concentrations were estimated, according to the manufacturer specification, with the HTRF kit (Cisbio).
Assay buffer consisted of: 5 mM KCI, 1.25 mM MgSO4, 124 mM NaCl, 25 mM HEPES, 13.3 mM Glucose, 1.25 mM KH2PO4, 1.45 mM CaCl2, and 0.5 g/I BSA. PBS-EDTA contained 137 mM NaCl, 2.7 mM KCI, 10 mM Na2HPO4, 2 mM KH2PO4 and 5 mM EDTA. […]
(§4) Dose-response data from test compounds were analyzed with XLfit (IDBS) software using nonlinear regression applied to a sigmoidal dose-response model (4 Parameter Fit).
(§5) Agonist activity of test compounds is expressed as a percentage of the activity of the reference agonist at a saturating concentration.

5-HT1B = molecular target: T2, 5-HT1B (Homo sapiens, UniProt P28222); experiment: 5-HT1B cAMP HTRF assay (agonist test, Euroscreen FAST-0501C); assay type: cell-based
T2 construct: host or cells: CHO-K1
Protocol: as §1, §2, §3
Assay buffer consisted of: 5 mM KCI, 1.25 mM MgSO4, 124 mM NaCl, 25 mM HEPES, 13.3 mM Glucose, 1.25 mM KH2PO4, 1.45 mM CaCl2, and 0.5 g/I BSA. PBS-EDTA contained 137 mM NaCl, 2.7 mM KCI, 10 mM Na2HPO4, 2 mM KH2PO4 and 5 mM EDTA. Cell lines used were derived from CHO-K1 stably expressing the human receptors needed for the pharmacological testing (see Table 1). 5-Carboxamidotryptamine (5-CT) was used as reference agonist.
On each day of experimentation, reference compounds were tested at several concentrations in duplicate (n=2) to obtain a dose-response curve and an estimated EC50 value.
Reference values thus obtained for the test were compared to historical values obtained from the same receptor and used to validate the experimental session. […] For replicate determinations, the maximum variability tolerated in the test was of +/-20% around the average of the replicates.
as §4, §5

5-HT2B = molecular target: T3, 5-HT2B (Homo sapiens, UniProt P41595); experiment: 5-HT2B IP-One HTRF assay (Euroscreen FAST-0506I); assay type: cell-based
T3 construct: host or cells: CHO-K1
Protocol: B. 5-HT2B assay (performed at Euroscreen, order no.: FAST-0506I):
The 5-HT2B [00136] IP-One HTRF assay was conducted with recombinant cell lines, receptor accession numbers, cellular background and reference compounds are shown in Table 1.
Cells expressing human recombinant 5-HT2B (FAST-506I) grown to mid-log phase in culture media without antibiotics will be detached with PBS-EDTA, centrifuged and resuspended in medium without antibiotics buffer. 20,000 cells will be distributed in a 96 well plate and incubated overnight at 37°C with 5% CO2.
For agonist testing, the medium will be removed and 20 µl of assay buffer plus 20 µl of test compound or reference agonist will be added in each well. The plate will be incubated for 60 min at 37°C with 5% CO2.
For antagonist testing, 20 µl of test compound or reference antagonist is added and the plate is incubated for 15 min. at 37°C in a humidified atmosphere of 95% air with 5% CO2, then 20 µl of reference agonist at a final concentration corresponding to the historical EC80 is added. […]
IP1-D2 reagent and anti-IP1 cryptate reagents will be then dispensed in the wells and DeltaF percentage values will be then calculated following the manufacturer (CisBio) recommendations. […]
as §4

[1] = cited from earlier work
MAO-A = molecular target: T4, MAO-A (Homo sapiens, UniProt P21397); details: cited from earlier work
T4 sequence (P21397 1-527): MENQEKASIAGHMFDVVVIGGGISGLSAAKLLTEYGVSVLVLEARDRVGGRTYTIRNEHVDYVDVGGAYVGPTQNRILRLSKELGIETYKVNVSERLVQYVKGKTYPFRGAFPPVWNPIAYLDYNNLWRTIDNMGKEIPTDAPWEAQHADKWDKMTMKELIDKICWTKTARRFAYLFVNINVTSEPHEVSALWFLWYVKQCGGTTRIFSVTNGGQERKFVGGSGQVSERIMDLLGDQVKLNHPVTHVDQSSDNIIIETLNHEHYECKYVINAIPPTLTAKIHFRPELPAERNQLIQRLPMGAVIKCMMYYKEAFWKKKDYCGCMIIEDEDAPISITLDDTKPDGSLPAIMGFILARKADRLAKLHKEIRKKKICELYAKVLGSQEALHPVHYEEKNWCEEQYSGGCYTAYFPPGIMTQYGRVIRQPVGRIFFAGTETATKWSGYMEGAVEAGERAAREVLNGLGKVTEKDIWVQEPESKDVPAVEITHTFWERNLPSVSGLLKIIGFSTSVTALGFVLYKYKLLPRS

MAO-B = molecular target: T5, MAO-B (Homo sapiens, UniProt P27338); details: cited from earlier work
T5 sequence (P27338 1-520): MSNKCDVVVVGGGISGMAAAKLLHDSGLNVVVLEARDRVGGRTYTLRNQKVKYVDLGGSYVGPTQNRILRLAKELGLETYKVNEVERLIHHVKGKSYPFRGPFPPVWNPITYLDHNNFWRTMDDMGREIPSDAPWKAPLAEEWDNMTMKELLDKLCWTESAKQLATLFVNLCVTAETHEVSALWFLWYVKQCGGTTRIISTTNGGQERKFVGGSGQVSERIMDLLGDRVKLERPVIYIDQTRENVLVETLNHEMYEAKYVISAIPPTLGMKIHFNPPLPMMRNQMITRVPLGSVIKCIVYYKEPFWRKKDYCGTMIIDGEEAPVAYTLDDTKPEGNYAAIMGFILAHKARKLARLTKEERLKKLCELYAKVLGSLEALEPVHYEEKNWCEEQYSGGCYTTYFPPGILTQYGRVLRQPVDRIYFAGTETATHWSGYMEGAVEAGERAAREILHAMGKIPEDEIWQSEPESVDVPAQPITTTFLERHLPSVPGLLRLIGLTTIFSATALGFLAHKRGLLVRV

[2] = molecular target: T6, Muscarinic acetylcholine receptors M1 (Homo sapiens, UniProt P11229); details: cited from earlier work
T6 sequence (P11229 1-460): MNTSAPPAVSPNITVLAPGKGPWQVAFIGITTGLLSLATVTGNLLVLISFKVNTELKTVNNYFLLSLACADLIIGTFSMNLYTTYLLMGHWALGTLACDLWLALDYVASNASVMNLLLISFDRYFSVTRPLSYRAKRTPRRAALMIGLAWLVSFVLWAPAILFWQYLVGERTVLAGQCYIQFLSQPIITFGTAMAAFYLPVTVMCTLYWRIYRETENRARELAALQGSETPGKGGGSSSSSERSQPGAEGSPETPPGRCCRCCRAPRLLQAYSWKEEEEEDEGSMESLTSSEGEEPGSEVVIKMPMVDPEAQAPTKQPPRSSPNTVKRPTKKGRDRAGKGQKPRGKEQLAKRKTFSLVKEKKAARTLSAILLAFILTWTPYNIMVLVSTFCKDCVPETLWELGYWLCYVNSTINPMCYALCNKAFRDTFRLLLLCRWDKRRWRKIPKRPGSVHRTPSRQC

[3] = molecular target: T7, Muscarinic acetylcholine receptors M2 (Homo sapiens, UniProt P08172); details: cited from earlier work
T7 sequence (P08172 1-466): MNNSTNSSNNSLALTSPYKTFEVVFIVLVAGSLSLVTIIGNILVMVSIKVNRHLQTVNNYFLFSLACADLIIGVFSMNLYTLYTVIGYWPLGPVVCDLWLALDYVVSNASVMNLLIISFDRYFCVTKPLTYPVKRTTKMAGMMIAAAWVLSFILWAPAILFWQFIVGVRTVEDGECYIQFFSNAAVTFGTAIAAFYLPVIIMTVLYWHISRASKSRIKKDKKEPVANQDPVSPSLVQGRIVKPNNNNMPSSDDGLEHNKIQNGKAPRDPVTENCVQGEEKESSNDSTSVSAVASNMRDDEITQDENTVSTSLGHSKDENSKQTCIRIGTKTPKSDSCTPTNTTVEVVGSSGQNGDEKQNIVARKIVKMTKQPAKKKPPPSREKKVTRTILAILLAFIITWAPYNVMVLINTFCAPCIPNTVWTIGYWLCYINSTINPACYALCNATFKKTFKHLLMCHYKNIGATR

[4] = molecular target: Muscarinic acetylcholine receptors M3 (Homo sapiens, UniProt P20309); details: cited from earlier work
NMDA receptor = details: cited from earlier work

T2 sequence (P28222 whole entry): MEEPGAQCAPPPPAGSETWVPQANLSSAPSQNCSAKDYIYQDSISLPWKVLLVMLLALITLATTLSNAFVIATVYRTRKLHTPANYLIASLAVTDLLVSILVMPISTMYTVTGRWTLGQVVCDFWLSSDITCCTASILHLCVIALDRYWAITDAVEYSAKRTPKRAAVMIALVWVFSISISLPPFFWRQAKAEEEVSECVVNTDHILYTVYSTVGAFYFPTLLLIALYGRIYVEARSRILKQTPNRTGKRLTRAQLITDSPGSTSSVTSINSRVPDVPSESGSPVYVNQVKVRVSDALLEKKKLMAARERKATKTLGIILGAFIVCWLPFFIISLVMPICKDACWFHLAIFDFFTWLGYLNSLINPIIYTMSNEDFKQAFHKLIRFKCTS
Muscarinic acetylcholine receptors M3, sequence (P20309 whole entry): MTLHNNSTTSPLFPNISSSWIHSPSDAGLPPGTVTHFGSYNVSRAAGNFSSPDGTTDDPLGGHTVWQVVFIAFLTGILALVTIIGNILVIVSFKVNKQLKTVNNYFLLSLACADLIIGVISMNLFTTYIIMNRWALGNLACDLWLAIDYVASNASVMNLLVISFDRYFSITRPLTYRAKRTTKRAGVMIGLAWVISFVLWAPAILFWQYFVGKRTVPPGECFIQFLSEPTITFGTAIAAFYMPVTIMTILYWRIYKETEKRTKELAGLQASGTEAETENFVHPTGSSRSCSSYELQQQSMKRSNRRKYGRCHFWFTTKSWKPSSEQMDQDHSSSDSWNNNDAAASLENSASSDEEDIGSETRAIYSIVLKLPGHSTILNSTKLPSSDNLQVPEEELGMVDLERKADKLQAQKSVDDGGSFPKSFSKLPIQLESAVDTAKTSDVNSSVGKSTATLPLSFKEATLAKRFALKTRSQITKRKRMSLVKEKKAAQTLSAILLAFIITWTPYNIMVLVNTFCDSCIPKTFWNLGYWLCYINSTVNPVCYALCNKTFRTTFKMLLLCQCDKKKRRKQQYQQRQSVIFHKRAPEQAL
T3 sequence (P41595 whole entry): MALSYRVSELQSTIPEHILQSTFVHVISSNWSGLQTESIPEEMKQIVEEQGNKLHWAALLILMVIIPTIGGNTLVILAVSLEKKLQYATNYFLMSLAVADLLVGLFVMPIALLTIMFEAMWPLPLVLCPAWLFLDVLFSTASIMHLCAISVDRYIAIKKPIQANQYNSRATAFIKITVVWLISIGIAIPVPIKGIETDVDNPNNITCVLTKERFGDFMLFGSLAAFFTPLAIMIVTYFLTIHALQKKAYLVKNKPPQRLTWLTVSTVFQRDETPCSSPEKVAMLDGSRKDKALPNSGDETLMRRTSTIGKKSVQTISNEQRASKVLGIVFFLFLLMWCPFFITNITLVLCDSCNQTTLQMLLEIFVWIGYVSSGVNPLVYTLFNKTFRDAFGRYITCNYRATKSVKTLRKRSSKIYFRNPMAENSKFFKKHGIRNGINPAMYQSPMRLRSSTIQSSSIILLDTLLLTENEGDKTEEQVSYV

| Compound | reduction of LID (6-OHDA-lesioned rats) | pEC50 (5-HT1A) | Emax (5-HT1A; 0.5 h, CHO-K1 cells, human recombinant receptor, percentage of the activity of reference agonist 5-CT at saturating concentration, read-out: partial agonism, efficacy at 5-HT1A) | Emax (5-HT1B; 0.5 h, CHO-K1 cells, human recombinant receptor, percentage of the activity of reference agonist 5-CT at saturating concentration, read-out: partial agonism, efficacy at 5-HT1B) | pEC50 (5-HT1B; CHO-K1 cells, human recombinant receptor, cAMP with forskolin, read-out: partial agonism at 5-HT1B (potency)) | action at the 5-HT1B receptor (5-HT1B; human recombinant cell lines) | pIC50 (5-HT2B) | effect on LID (AIM scores) (6-OHDA-lesioned rats; 10 mg/kg p.o., 10 min before L-DOPA/benserazide 6/15 mg/kg i.p.) | adverse events in Phase 1 studies [1] | activity at MAO-A (MAO-A) | activity at MAO-B (MAO-B) | activity at Muscarinic acetylcholine receptor M1 [2] | activity at Muscarinic acetylcholine receptor M2 [3] | activity at Muscarinic acetylcholine receptor M3 [4] | activity at NMDA receptor (NMDA receptor) |
| --- | --- | --- | --- | --- | --- | --- | --- | --- | --- | --- | --- | --- | --- | --- | --- |
| NC12CC3CC(CC(C3)C1)C2 [Amantadine] | -25% | – | – | – | – | – | – | – | – | – | – | – | – | – | – |
| COc1cccc2c1CCC(=O)N2CCCN1CCN(c2cccc(Cl)c2)CC1 [OPC-14523, 1-[3-[4-(3-Chlorophenyl)piperazin-1-yl]propyl]-5-methoxy-1,2,3,4-tetrahydroquinolin-2-one] | – | 7.59 | ~60% | ~60% | 8.15 | partial agonist | 6.80 | strongly reduced LID | no adverse events | inactive | inactive | inactive | inactive | inactive | inactive |
| c1cc2c(c(N3CCNCC3)c1)OCCO2 [Eltoprazine] | -60% | – | – | – | – | – | – | – | – | – | – | – | – | – | – |

— patent EP2792359A1, “Treatment of L-DOPA-induced dyskinesia with OPC-14523 or OPC-34712” (Merz Pharma GmbH & Co. KGaA, priority 2013, dated 2014)
